Results published in ChEMBL document CHEMBL1122294, “Synthesis and biological activity of zoapatanol analogues” (J Med Chem, 1983).
The source made the active and inactive calls. The calls are words filed in the database; no cut-off is given here.

Key:
Type in all cases: functional, organism-based
[1] = system: Cavia porcellus; experiment: Postcoital antifertility was determined in guinea pigs after injected for 3 days subcutaneously (22-24 postmating days); IA- Inactive
[2] = system: Cavia porcellus; experiment: Luteolytic activity was determined in guinea pigs after injected for 3 days subcutaneously (22-24 postmating days); IA- Inactive
[3] = system: Cavia porcellus; experiment: Pregnancy was determined in guinea pigs after sc administration of 50 or 75 mg per guinea pig on 22-24 postmating days (n=5); NA- No apparent effect
[4] = system: Cavia porcellus; experiment: Postcoital antifertility was determined in guinea pigs administered intraperitoneally as a single dose on day 22 postmating days; IA- Inactive
[5] = system: Cavia porcellus; experiment: Luteolytic activity was determined in guinea pigs after injected for 3 days subcutaneously (12-14 postmating days); IA- Inactive
[6] = system: Cavia porcellus; experiment: Pregnancy was determined in guinea pigs after sc administration of 40 or 50 mg per guinea pig on 12-14 postmating days (n=5); NA- No apparent effect
[7] = system: Cavia porcellus; experiment: Luteolytic activity was determined in guinea pigs administered intraperitoneally as a single dose on day 22 postmating days; IA- Inactive
[8] = system: Cavia porcellus; experiment: Postcoital antifertility activity was determined in guinea pigs after injected for 3 days subcutaneously (12-14 postmating days); IA- Inactive
[9] = species on record: Cavia porcellus; experiment: Pregnancy was determined in guinea pigs after a single dose of 40 mg per guinea pig (n=1 or 2); NE- No effect
[10] = species on record: Cavia porcellus; experiment: Pregnancy was determined in guinea pigs after a single dose of 24 mg per guinea pig (n=1 or 2); NE- No effect
[11] = system: Cavia porcellus; experiment: Effect on the resorption of implantation sites in guinea pigs at 100 mg/kg administered intraperitoneally; E- Fully effective; set-up: dose 100 mg/kg
[12] = system: Cavia porcellus; experiment: Effect in guinea pigs at a dose of 80 mg/kg of body weight; A- Partially active; set-up: dose 80 mg/kg
[13] = system: Cavia porcellus; experiment: Effect in guinea pigs at a dose of 60 mg/kg of body weight; A- Partially active; set-up: dose 60 mg/kg

| SMILES | Activity [1] | Activity [2] | Activity [3] | Activity [4] | Activity [5] | Activity [6] | Activity [7] | Activity [8] | Activity [9] | Activity [10] | Activity [11] | Activity [12] | Activity [13] |
| --- | --- | --- | --- | --- | --- | --- | --- | --- | --- | --- | --- | --- | --- |
| COC(=O)C(C)CCC[C@@]1(C)COC(CO)CO1 (some centres undefined) | inactive | inactive | inactive | inactive | inactive | inactive | inactive | inactive |  |  |  |  |  |
| CC(C)=CCC(=O)C(C)CCCC1(C)COC(CO)CO1 (centres undefined) | inactive | inactive |  | inactive | inactive |  | inactive | inactive |  |  |  |  |  |
| CC(C)/C=C/C(=O)C(C)CCCC1(C)COC(CC(=O)O)CO1 (centres undefined) | inactive | inactive |  | inactive | inactive |  | inactive | inactive | inactive | inactive |  |  |  |
| CC(C)=CCC(=O)C(C)CCCC1(C)OC/C(=C/CO)CCC1O (centres undefined) |  |  |  |  |  |  |  |  |  |  | Fully effective | Weak activity | Weak activity |
| COC(=O)C(C)CCC[C@]1(C)COC(CO)CO1 (some centres undefined) | inactive | inactive | inactive | inactive | inactive | inactive | inactive | inactive |  |  |  |  |  |
| CC(C)=CCC(=O)C(C)CCCC1(C)COC(CC(=O)O)CO1 (centres undefined) | inactive | inactive |  | inactive | inactive |  | inactive | inactive |  |  |  |  |  |
